“Also recorded” adds a separate entry of the source.
What was measured:
MCF-7 breast tumor = MCF-7 breast tumor growth, oral administration; assay type: in vivo; conditions: mice, 15, 30, 60 mg/kg by gavage once daily, 20 days
Experimental: The growth inhibitory effect of oral administration of K-80003 on MCF-7 breast tumor tissue grown in mice was investigated. K-80003 was dissolved in NaHCO3 (pH 8.0). Mice with MCF-7 breast tumor tissue were administered 15 mg/kg K-80003, 30 mg/kg K-80003, 60 mg/kg K-80003, or a control in 100 ul total volume by gavage once daily.

[1] = biological target: T1, interaction of p85α with RXRα/Δ80 (Homo sapiens, UniProt P19793); assay: Co-immunoprecipitation of Flag-p85α and Myc-RXRα/Δ80 in A549 cells; assay type: cell-based; conditions: 50 μM, with or without TNFα
T1 construct: expressed in transfected cells; host or cells: A549 human lung cancer cells
T1 sequence (P19793 81-462 limits assumed, stated change not applied): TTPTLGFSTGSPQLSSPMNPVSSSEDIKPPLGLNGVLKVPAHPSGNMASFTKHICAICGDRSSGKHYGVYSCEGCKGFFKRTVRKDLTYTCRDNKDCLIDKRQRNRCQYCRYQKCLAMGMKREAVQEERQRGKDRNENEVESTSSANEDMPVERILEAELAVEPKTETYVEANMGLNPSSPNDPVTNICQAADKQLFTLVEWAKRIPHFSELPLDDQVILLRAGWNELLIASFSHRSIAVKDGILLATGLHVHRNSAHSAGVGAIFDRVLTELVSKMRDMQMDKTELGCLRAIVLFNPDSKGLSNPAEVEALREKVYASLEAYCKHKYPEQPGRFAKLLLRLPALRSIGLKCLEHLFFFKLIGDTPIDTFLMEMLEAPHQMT
Experimental: Caco-2 and MEF cells were treated with the indicated concentration of Sulindac or K-80003 for 30 min, then stimulated with all-trans-RA (10^-7 M) for 15 min. AKT activation was analyzed by immunoblotting. PC3 cells transfected with RXRα or RARγ siRNA were pre-treated with K-80003 (50 μM) for 1 hr before exposed to TNFα (10 ng/ml) for 30 min (pRXRα: phosphorylated RXRα). A549 cells were transfected with Flag-p85α and Myc-RXRα/[…], treated with Sulindac (50 μM) or K-80003 (50 μM) for 1 hr, exposed to TNFα for 30 min, and analyzed by coimmunoprecipitation using an anti-Flag antibody. […] (FIG. 8C). Reducing RXRα expression by siRNA largely impaired the inhibitory effect of K-80003 on AKT activation in PC3 cells. […] Thus, inhibition of AKT activation by K-80003 was also dependent on RXRα expression (FIG. 8B). For the CoIP assay, cells or cells transfected with indicated expression vectors were suspended in lysis buffer (50 mM Tris-HCl, pH 7.4; 150 mM NaCl; 20 mM EDTA; 1% NP-40; 1 mM PMSF; […] Leupeptin; […] Aprotinin; 0.1 mM Na3VO4; and 1 mM DTT). […] Immunoreactive products were detected by chemiluminescence with an enhanced chemiluminescence system (ECLTM) (Amersham Biosciences, Amersham, UK).

ZR-75-1 cells = assay: PARP cleavage with TNFα by immunoblotting; assay type: cell-based, human; conditions: K-80003 50 μM, Sulindac 75 μM, 6 hr
Experimental: ZR-75-1 cells were treated with TNFα and/or Sulindac (75 μM) or K-80003 (50 μM) for 6 hr and analyzed by immunoblotting.

cancer = assay: Preventing cancer in a human patient; assay type: in vivo; conditions: 150 mg tablet twice daily
Experimental: A human patient with an elevated risk of developing cancer relative to the general population is identified and instructed to take a 150 mg tablet containing the active ingredient K-80003 twice daily.

HepG2 cells = assay: Bax activation by Bax/6A7 immunostaining; assay type: cell-based
Experimental: Activation of Bax by Sulindac and TNFα. HepG2 cells treated with TNFα and/or Sulindac were immunostained with Bax/6A7 antibody. […] HepG2 cells treated with TNFα or Sulindac alone or together were examined for Bax activation by immunostaining using conformation-sensitive Bax/6A7 antibody. Significant Bax staining was observed only when cells were treated with both TNFα and Sulindac (FIG. 6E). Cross-talk between extrinsic and intrinsic apoptotic pathways can be linked through Bid cleavage and activation (Li et al., Cell 94 (4), 491-501 (1998)). […] PC3 cells transfected with CA-AKT or DN-AKT were treated with TNFα and/or Sulindac, and analyzed by immunoblotting (FIG. 6F). Activation of caspase-8 (FIG. 6G) and Bax (FIG. 6H) by Sulindac and TNFα. HepG2 cells transfected with CA-AKT were treated with TNFα and Sulindac, and immunostained with anti-cleaved caspase-8 or Bax/6A7 antibody. […] Sulindac/TNFα-induced PARP cleavage was inhibited by transfection of constitutive-active AKT (CA-AKT) but enhanced by transfection of dominant-negative AKT (DN-AKT) (FIG. 6F). Consistently, induction of apoptosis (FIG. 17B) and activation of caspase-8 (FIG. 6G) and Bax (FIG. 6H) by Sulindac/TNFα combination was inhibited by CA-AKT.

RARγ protein = RARγ protein (Homo sapiens, UniProt P13631); assay: Ligand-binding assay with [3H]all-trans-RA; conditions: competition with [3H]all-trans-RA
Sequence of RARγ protein (P13631 whole entry, species assumed): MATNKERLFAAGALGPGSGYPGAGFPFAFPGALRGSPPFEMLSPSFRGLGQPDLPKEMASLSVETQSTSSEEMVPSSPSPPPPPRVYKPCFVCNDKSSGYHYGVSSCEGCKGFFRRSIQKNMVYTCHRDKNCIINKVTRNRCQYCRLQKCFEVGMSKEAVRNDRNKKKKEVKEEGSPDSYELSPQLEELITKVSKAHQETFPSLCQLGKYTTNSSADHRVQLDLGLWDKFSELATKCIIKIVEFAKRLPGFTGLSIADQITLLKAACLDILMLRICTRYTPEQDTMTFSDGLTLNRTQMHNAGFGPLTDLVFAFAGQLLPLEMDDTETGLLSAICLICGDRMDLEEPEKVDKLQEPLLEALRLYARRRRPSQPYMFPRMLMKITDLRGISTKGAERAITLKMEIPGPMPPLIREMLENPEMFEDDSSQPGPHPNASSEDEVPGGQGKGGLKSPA
Experimental: Purified RARγ protein was incubated with [^3H]all-trans-RA in the presence or absence of Sulindac or unlabeled all-trans RA. Bound [^3H]all-trans-RA was quantitated by liquid scintillation counting.

c-FLIP = c-FLIP expression by immunoblotting; assay type: cell-based; conditions: HepG2, A549 and SW480 cells, 6 hr
Experimental: Cells treated with TNFα and/or Sulindac for 6 hr were analyzed by immunoblotting (FIG. 6I). The expression of c-FLIP, a downstream target gene of AKT signaling, which acts as a potent inhibitor of the extrinsic apoptotic pathway by inhibiting caspase-8 activation, was examined. […] Thus, Sulindac may induce apoptosis by suppressing the inducing effect of TNFα on c-FLIP expression.

[2] = system: interaction of p85α with tRXRα and/or RXRα; assay: Co-immunoprecipitation with ΔN197 anti-RXRα antibody; assay type: cell-based; conditions: TNFα-enhanced
Experimental: RXRα interaction with p85α was examined. Anti-RXRα […]antibodies (Santa Cruz Biotechnology, Santa Cruz, Calif.) were used in co-immunoprecipitation (Co-IP) and Western blotting (WB) assays. BHK cells were treated with ATRA (10^−7 M) for 30 min. Lysates were prepared and analyzed for RXRα-p85α interaction using either D20 anti-RXRα or ΔN197 anti-RXRα antibody (FIG. 12D).
For the CoIP assay, cells or cells transfected with indicated expression vectors were suspended in lysis buffer (50 mM Tris-HCl, pH 7.4; 150 mM NaCl; 20 mM EDTA; 1% NP-40; 1 mM PMSF; […] Leupeptin; […] Aprotinin; 0.1 mM Na3VO4; and 1 mM DTT). Cell extracts were cleared by incubation with the Protein A/G plus Agarose beads (Santa Cruz Biotechnology, Santa Cruz, Calif.) and then incubated with appropriate antibody and […] of Protein A or G plus Agarose beads overnight at 4° C. Beads were then washed and boiled in Laemmli gel-loading solution before performing SDS-PAGE/immunoblotting using polyclonal or monoclonal antibodies. Immunoreactive products were detected by chemiluminescence with an enhanced chemiluminescence system (ECL™) (Amersham Biosciences, Amersham, UK).

Structure (SMILES): CC1=C(CC(=O)O)c2cc(F)ccc2/C1=C\c1ccc(C(C)C)cc1 [K-80003, (Z)-2-(3-(4-Iso-propylbenzylidene)-6-fluoro-2-methyl-3H-inden-1-yl)acetic acid]
- tumor volume compared to control (MCF-7 breast tumor): dose-dependent decrease in tumor volume
- inhibition of interaction of p85α with RXRα/Δ80 [1]: much more effective than Sulindac; also recorded: potently inhibited
- induction of PARP cleavage together with TNFα, compared with Sulindac (ZR-75-1 cells): more effective than Sulindac
- development of cancer in patient at elevated risk (cancer): does not develop cancer

Structure (SMILES): CSc1ccc(/C=C2/C(C)=C(CC(=O)O)c3cc(F)ccc32)cc1 [Sulindac, (Z)-2-(3-(4-(Methylthio)benzylidene)-6-fluoro-2-methyl-3H-inden-1-yl)acetic acid]
- cells showing Bax staining, Sulindac/TNFα (HepG2 cells; Bax/6A7 antibody): about 60%
- cells exhibiting Bax staining, CA-AKT-transfected (HepG2 cells; TNFα and Sulindac): about 13%
- cells exhibiting Bax staining, nontransfected (HepG2 cells; TNFα and Sulindac): About 60%
- binding to RARγ (RARγ protein): did not bind
- TNFα induction of c-FLIP (c-FLIPS and c-FLIPL) (c-FLIP): inhibited
- interaction of p85α with tRXRα and/or RXRα [2]: inhibited

Source: patent US10087156B2, “Methods and compositions related to retinoid receptor-selective pathway” (Sanford Burnham Prebys Medical Discovery Institute, priority 2010, dated 2018)
